# Legend:
# PD-L1 (CD274) = test: PD-L1 expression on Eμ-Myc lymphoma cell lines by flow cytometry (MFI) after in vitro treatment; assay type: cell-based, murine; conditions: for expression of PD-L1 (CD274) on lymphoma cells (MFI): 24 hours in vitro, vs DMSO
# Method: (§1) […] lymphoma cells (5×10^5) were incubated in the presence of JQ1, or DMSO, in 500 μL culture media in a 48 well plates (Corning, N.Y.) prior to analysis of PD-L1/L2 expression by flow cytometry. Human RPMI-8226 and L540 cells (5×10^5) were incubated in the presence of JQ1, or DMSO vehicle, in 500 μL culture media in a 48 well plates (Corning, N.Y.). Additionally RPMI-8226 cells were cultured with 100 ng/ML, IFN-γ as a single agent and in combination with JQ1, prior to analysis of PD-L1/L2 expression by flow cytometry.
# Cell suspensions were washed once with ice-cold flow cytometry buffer (2% FCS and 0.02% NaN3 in PBS) and resuspended in anti-CD16/32 monoclonal antibody (clone 2.4G2) on ice for 30 minutes to block Fc receptors. Cell suspensions were washed once with ice-cold flow cytometry buffer and stained on ice for 30 minutes with the following conjugated antibodies: anti-mouse CD3 (pacific blue, 1:400, clone 17A2), anti-mouse CD4 (APC, 1:400, clone RM4-5), anti-mouse CD8 (PE-Cy7, 1:400, clone 53-6.7), anti-mouse PD-1 (FITC, 1:400, clone J43), anti-mouse PD-L1 (PE, 1:100, clone MIH5), anti-mouse PD-L2 (Biotin, 1:200, clone TY25), anti-human PD-L1 (PE, 1:200, clone 29E.2A3), or anti-human PD-L2 (Biotin, 1:200, clone 24F.10C12). Biotinylated antibodies were subsequently incubated with Streptavidin-PE-Cy7 (1:1000, catalogue number 25-4317-82) or Streptavidin-Pacific Blue (1:1000, catalogue number 48-4317-82) for 30 minutes on ice. Anti-Armenian Hamster IgG (FITC, 1:400, catalogue number 554011), Mouse IgG2aκ (PE, 1:100, clone RTK2758), Rat IgG2aκ (Biotin, 1:200, clone eBR2a), Mouse IgG2bκ (PE, 1:200, catalogue number 559529), and Mouse IgG2aκ (Biotin, 1:200, clone eBM2a) were used as isotype control antibodies, respectively. All antibodies were purchased from BioLegend (San Diego, Calif.), eBiosciences (San Diego, Calif.), or BD Bioscience (San Diego, Calif.). Cell suspensions were washed once with ice-cold flow cytometry buffer, resuspended in ice-cold flow cytometry buffer containing 7-AAD (1:1000, BD Bioscience) and analyzed by flow cytometry. Data was collected on a LSR Fortessa flow cytometer (BD Biosciences) and analyzed using FlowJo Software, version 10.0.7 (Tree Star).
# As described in FIGS. 2A and 2B, JQ1 downregulates the expression of PD-L1 (CD274) on lymphoma cells as determined by flow cytometry analysis. Graphs showing the mean fluorescence intensity (MFI) of PD-L1 on Eμ-Myc lymphoma cell lines (FIG. 2A) ^#4242 and (FIG. 2B) ^#299 over-expressing Bcl-2 following 24 hours treatment in vitro with indicated concentrations of JQ1, or DMSO control are provided. Representative data are presented as mean MFI of cells cultured and analyzed in triplicate±S.E.M. (****p <0.0001, Student's t test).
# PD-L1 downregulation following BET inhibition is time-dependent. Flow cytometry analysis of PD-L1 expression on Eμ-Myc lymphoma cell line ^#6066 following treatment in vitro with 500 nM JQ1 or DMSO control for indicated time points was performed.
# Chemically distinct bromodomain inhibitors downregulate the expression of PD-L1 (CD274) on lymphoma cells, as shown by flow cytometry. […] Representative data are presented as mean MFI of cells cultured and analyzed in triplicate±S.E.M. (***p<0.001, Student's t test).
# PD-L1 transcript = test: Quantitative real-time PCR of PD-L1 mRNA in Eμ-Myc lymphoma cell lines; assay type: cell-based, Mus musculus; conditions: 1000 nM; Eμ-Myc lymphoma #4242 and #299 over-expressing Bcl-2; indicated time points
# Method: Eμ-Myc lymphomas cells were cultured in the presence of JQ1, or DMSO, as described above. RNA was extracted from cell pellets using the Nucleospine® RNA extraction kit (Macherey-Nagel, Bethlehem, Pa.) as per the manufacturer's instructions. cDNA was synthesized according to the manufacturer's instructions (Promega, Sydney, NSW). Quantitative PCR analysis of samples was performed on the 7900HT Fast Real-Time PCR System (Applied Biosystems, Mulgrave, VIC, Australia') with SYBR-green ROX mix (Agilent, Mulgrave, VIC, Australia). GAPDH was used as the murine control genes. Primer sequences were: Mus musculus PD-L1 F: […] (SEQ ID NO: 1) R: […] (SEQ ID NO: 2), Mus musculus GAPDH F: […] (SEQ ID NO: 3) R: […] (SEQ ID NO: 4).
# Quantitative real-time-PCR (qPCR) analysis of PD-L1 mRNA levels in Eμ-Myc lymphoma cell lines (FIG. 2G) ^#4242 and (FIG. 2H) ^#299 over-expressing Bcl-2 following treatment with 1000 nM JQ1, or DMSO control, was performed at indicated time points. Transcript levels are presented as fold change compared to DMSO. Data are presented as mean fold-change from 3 separate experiments±S.E.M. (**p<0.01, ***p<0.001, ****p<0.0001, Student's t test).
# PD-L2 (CD273) = test: PD-L2 expression on tumor cells of treated lymphoma-bearing mice by flow cytometry; assay type: in vivo, mouse; conditions: single dose 50 mg/kg; peripheral lymph nodes 16 hours after dose; Eμ-Myc lymphoma #4242 in C57BL/6 mice
# Method: Cell suspensions were washed once with ice-cold flow cytometry buffer (2% FCS and 0.02% NaN3 in PBS) and resuspended in anti-CD16/32 monoclonal antibody (clone 2.4G2) on ice for 30 minutes to block Fc receptors. Cell suspensions were washed once with ice-cold flow cytometry buffer and stained on ice for 30 minutes with the following conjugated antibodies: anti-mouse CD3 (pacific blue, 1:400, clone 17A2), anti-mouse CD4 (APC, 1:400, clone RM4-5), anti-mouse CD8 (PE-Cy7, 1:400, clone 53-6.7), anti-mouse PD-1 (FITC, 1:400, clone J43), anti-mouse PD-L1 (PE, 1:100, clone MIH5), anti-mouse PD-L2 (Biotin, 1:200, clone TY25), anti-human PD-L1 (PE, 1:200, clone 29E.2A3), or anti-human PD-L2 (Biotin, 1:200, clone 24F.10C12). […] Cell suspensions were washed once with ice-cold flow cytometry buffer, resuspended in ice-cold flow cytometry buffer containing 7-AAD (1:1000, BD Bioscience) and analyzed by flow cytometry. Data was collected on a LSR Fortessa flow cytometer (BD Biosciences) and analyzed using FlowJo Software, version 10.0.7 (Tree Star). […]
# (§2) A cohort of mice were injected intravenously with 1-5×10^5 Eμ-Myc lymphoma ^#4242 cells and left for 12 days to develop bulky nodal disease. Peripheral lymph nodes were harvested 16 hours following a single dose of JQ1 (50 mg/kg), or DMSO vehicle (n=3 per treatment group) and assessed by flow cytometry. […]
# PD-L1 [1] = test: IFN-γ-inducible PD-L1 expression on multiple myeloma cell line RPMI-8226 by flow cytometry; assay type: cell-based, human; conditions: RPMI-8226 cells; 500 nM with 100 ng/mL IFN-γ; 24 hours
# Method: as §1
# Cell suspensions were washed once with ice-cold flow cytometry buffer (2% FCS and 0.02% NaN3 in PBS) and resuspended in anti-CD16/32 monoclonal antibody (clone 2.4G2) on ice for 30 minutes to block Fc receptors. […] Cell suspensions were washed once with ice-cold flow cytometry buffer, resuspended in ice-cold flow cytometry buffer containing 7-AAD (1:1000, BD Bioscience) and analyzed by flow cytometry. Data was collected on a LSR Fortessa flow cytometer (BD Biosciences) and analyzed using FlowJo Software, version 10.0.7 (Tree Star).
# JQ1 treatment downregulates the IFN-γ-inducible expression of PD-L1 on human myeloma cell lines. […] Representative data are presented as mean MFI of cells cultured and analyzed in triplicate=S.E.M. (*p<0.05, Student's t test).
# Eμ-Myc lymphoma = test: Survival of mice bearing transplanted Eμ-Myc lymphoma (Kaplan-Meier); assay type: in vivo, mouse; conditions: 50 mg/kg daily i.p.
# Method: (§3) Female C57BL/6 mice were purchased. C57BL/6.Rag2cγ^−/− mice were bred in house. C57BL/6.Rag1^−/− mice were purchased. For transplantation of Eμ-Myc lymphomas in vivo, cohorts of six- to eight-week-old syngeneic mice were inoculated via tail vein injection with 1-4×10^5 Eμ-Myc lymphoma cells. Mice were treated with 50 mg/kg JQ1, reconstituted in 1 part DMSO to 9 parts 10% (w/v) Hydroxypropyl-β-cyclodextrin (HPBCD; Cyclodextrin Technologies Development Inc., Gainesville, Fla.) In sterile water, or DMSO vehicle control. Mice were dosed once daily (5 days/week) via intra-peritoneal (i.p.) injection, commencing three days post-intravenous inoculation, for a total of 5 weeks therapy or until treatment failure. Tumor-bearing C57BL/6 mice were treated with the following monoclonal antibodies via i.p. injection: Anti-4-1-BB (Anti-CD137, 100 μg, 3H3; BioXCell), anti-PD-1 (100 μg, […]; BioXCell), or control immunoglobulin. (cIg, Rat IgG2a, 2A3, 100 μg; BioXCell). Anti-PD-1 mAb was dosed on days 5, 10, 15, and 20 post tumor transplant. Anti-4-1BB mAb was dosed on days 5, 8, and 11 post tumor transplant.
# Cohorts of mice on a C57BL/6 background (n=10 per treatment group) were injected intravenously with 1-5×10^5 Eμ-Myc lymphoma cells three days prior to commencement of daily dosing with JQ1 (50 mg/kg), or DMSO vehicle., via i.p. injection. […]
# Eμ-Myc lymphoma #299 = test: Survival of mice bearing Eμ-Myc lymphoma #299 treated with JQ1 plus anti-PD-1 or anti-4-1BB antibody; assay type: in vivo, mouse; conditions: JQ1 50 mg/kg i.p., 25 doses, combined with 100 μg anti-PD-1 (days 5, 10, 15, 20) or anti-4-1BB (days 5, 8, 11)
# Method: as §3
# FIGS. 4A and 4B show Kaplan-Meier survival curves representing cohorts of […] (n=6 per treatment group) injected intravenously with 1-5×10^5 Eμ-Myc lymphoma ^#299 cells. […]
# PD-L1 [2] = test: PD-L1 expression on tumor cells of treated lymphoma-bearing mice by flow cytometry; assay type: in vivo, mouse
# Method: (§4) Cell suspensions were washed once with ice-cold flow cytometry buffer (2% FCS and 0.02% NaN3 in PBS) and resuspended in anti-CD16/32 monoclonal antibody (clone 2.4G2) on ice for 30 minutes to block Fc receptors. […] Cell suspensions were washed once with ice-cold flow cytometry buffer, resuspended in ice-cold flow cytometry buffer containing 7-AAD (1:1000, BD Bioscience) and analyzed by flow cytometry. Data was collected on a LSR Fortessa flow cytometer (BD Biosciences) and analyzed using FlowJo Software, version 10.0.7 (Tree Star). […]
# as §2
# A cohort of mice were injected intravenously with 1-5×10^5 Eμ-Myc lymphoma ^#4242/Bcl-2 cells and treated daily with JQ1 (50 mg/kg), or DMSO vehicle (n=5 per treatment group). At day 18, peripheral blood was obtained and tumor cells were assessed by flow cytometry. […]
# PD-L1 [3] = test: Constitutive PD-L1 expression on Hodgkin lymphoma cell line L540 by flow cytometry; assay type: cell-based, human; conditions: L540 cells; 24 hours in vitro; indicated concentrations
# Method: as §1, §4
# [4] = Eμ-Myc lymphoma cell line #6066, 1 μM
structure (smiles),measurement,setting,value
COc1cc2c(cc1-c1c(C)noc1C)ncc1[nH]c(=O)n([C@H](C)c3ccccn3)c12 [IBET-1.51],expression of PD-L1 (CD274) on lymphoma cells (MFI),PD-L1 (CD274); [4],downregulate
CCNC(=O)C[C@@H]1N=C(c2ccc(Cl)cc2)c2cc(OC)ccc2-n2c(C)nnc21 [IBET-762],expression of PD-L1 (CD274) on lymphoma cells (MFI),PD-L1 (CD274); [4],downregulate
Cc1sc2c(c1C)C(c1ccc(Cl)cc1)=N[C@@H](CC(=O)OC(C)(C)C)c1nnc(C)n1-2 [JQ1],PD-L1 mRNA level (fold change compared to DMSO),PD-L1 transcript,rapidly downregulates
same,"PD-L2 expression on live GFP-positive tumor cells (MFI), acute dose",PD-L2 (CD273),rapidly downregulates
same,IFN-γ-inducible expression of PD-L1 (MFI),PD-L1 [1],downregulates
same,expression of PD-L1 (CD274) on lymphoma cells (MFI),"PD-L1 (CD274); Eμ-Myc lymphoma #4242 and #299 over-expressing Bcl-2, indicated concentrations",downregulates
same,time course of PD-L1 downregulation,"PD-L1 (CD274); Eμ-Myc lymphoma cell line #6066, 500 nM, indicated time points",time-dependent
same,expression of PD-L1 (CD274) on lymphoma cells (MFI),PD-L1 (CD274); [4],downregulate
same,survival of JQ1-treated immune deficient mice versus JQ1-treated wild type mice,Eμ-Myc lymphoma; C57BL/6.Rag2cγ−/− and C57BL/6.Rag1−/− versus wild type C57BL/6,succumbed to disease significantly earlier
same,survival versus DMSO vehicle,"Eμ-Myc lymphoma; immune competent (C57BL/6) and immune deficient (Rag2cγ−/−, Rag1−/−) mice, Eμ-Myc lymphoma #4242 and #299",significant survival advantage
same,anti-tumor response (survival) in combination therapy,Eμ-Myc lymphoma #299,Promotes Curative Anti-Tumor Responses
same,"PD-L1 expression on circulating tumor cells (MFI), chronic treatment","PD-L1 [2]; 50 mg/kg daily, peripheral blood at day 18, Eμ-Myc lymphoma #4242/Bcl-2 in C57BL/6 mice",express lower levels of PD-L1
same,"PD-L1 expression on live GFP-positive tumor cells (MFI), acute dose","PD-L1 [2]; single dose 50 mg/kg, peripheral lymph nodes 16 hours after dose, Eμ-Myc lymphoma #4242 in C57BL/6 mice",rapidly downregulates
same,constitutive expression of PD-L1 (MFI),PD-L1 [3],downregulates
COc1cc(OC)c2c(=O)[nH]c(-c3cc(C)c(OCCO)c(C)c3)nc2c1 [RVX-208],expression of PD-L1 (CD274) on lymphoma cells (MFI),"PD-L1 (CD274); Eμ-Myc lymphoma cell line #6066, 10 μM",downregulate
Cc1sc2c(c1C)C(c1ccc(Cl)cc1)=N[C@@H](CC(=O)Nc1ccc(O)cc1)c1nnc(C)n1-2 [Y803],expression of PD-L1 (CD274) on lymphoma cells (MFI),PD-L1 (CD274); [4],downregulate
Cc1sc2c(c1C)C(c1ccc(Cl)cc1)=N[C@@H](CC(=O)NCCCCNC(=O)COc1cccc3c1C(=O)N(C1CCC(=O)NC1=O)C3=O)c1nnc(C)n1-2 (some centres unmarked) [dBET1],expression of PD-L1 (CD274) on lymphoma cells (MFI),PD-L1 (CD274); [4],downregulate

# From US20190192532A1, “COMBINATION THERAPY OF BROMODOMAIN INHIBITORS AND CHECKPOINT BLOCKADE” (DANA-FARBER CANCER INSTITUTE, priority 2015, published 2019)
